# How the values were obtained:
# S1PR = details: known; cited from earlier work
# the cells = assay: Toxicity to the cells when administered at a time other than the low-temperature preservation; assay type: cell-based; details: e.g. during a normal-temperature preservation
# [1] = tested on: cell line HepG2 derived from a human liver cancer; assay: Cold damage suppression, HepG2 cultured at 4° C. for 24 hours, viability after rewarming by alamarBlue (Examples 1, 5, 6); assay type: cell-based; details: HepG2, 4° C. 24 hours, compound 0 M to 50 μM, viability one hour after rewarming at 37° C.
# Procedure: Then, the culturing at 4° C. in a low temperature incubator was performed for 24 hours. After the culturing at low temperature for 24 hours, rewarming was carried out using a medium at 37° C., and the viability of cells one hour after the rewarming was determined by detecting enzyme activity using alamarBlue™. The compound concentration was varied from 0 M (Vehicle) to 50 μM, so that the concentration dependency of the compound was observed.
# Using the compounds 1 and 3 to 7 synthesized by the above-described scheme, the cell line HepG2 derived from a human liver cancer was cultured under the presence of the respective compounds at low temperature, and cold damage suppression effects were assessed.
# HepG2 cells were cultured at 37° C. so as to be at a density of 80 to 90%, and thereafter, the medium was replaced with a medium (DMEM) at 4° C. to which any one of the compounds 1 and 3 to 7 had been added preliminarily. Then, the culturing at 4° C. in a low temperature incubator was performed for 24 hours. After the culturing at low temperature for 24 hours, rewarming was carried out by a medium at 37° C., and the viability of cells one hour […] determined by detecting enzyme activity using alamarBlue™. The compound concentration was varied from 0 M (Vehicle) to 50 μM, so that the concentration dependency of the compound was observed. […]
# S1PR2 = S1PR2 (Homo sapiens, UniProt O95136); details: reported; cited from earlier work
# Chain of S1PR2 (O95136 whole entry, species assumed): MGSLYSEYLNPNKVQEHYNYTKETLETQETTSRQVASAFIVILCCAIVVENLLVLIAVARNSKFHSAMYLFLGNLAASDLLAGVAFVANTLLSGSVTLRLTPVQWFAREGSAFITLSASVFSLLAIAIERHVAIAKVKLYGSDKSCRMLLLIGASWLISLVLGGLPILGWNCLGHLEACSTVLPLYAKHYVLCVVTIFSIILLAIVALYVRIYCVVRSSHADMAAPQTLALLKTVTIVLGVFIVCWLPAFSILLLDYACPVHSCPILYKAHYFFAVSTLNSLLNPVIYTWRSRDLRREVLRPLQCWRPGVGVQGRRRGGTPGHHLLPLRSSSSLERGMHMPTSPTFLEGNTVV
# S1PR4 = molecular target: T1, S1PR4 (Homo sapiens, UniProt O95977); details: reported; cited from earlier work
# T1 sequence (O95977 1-384): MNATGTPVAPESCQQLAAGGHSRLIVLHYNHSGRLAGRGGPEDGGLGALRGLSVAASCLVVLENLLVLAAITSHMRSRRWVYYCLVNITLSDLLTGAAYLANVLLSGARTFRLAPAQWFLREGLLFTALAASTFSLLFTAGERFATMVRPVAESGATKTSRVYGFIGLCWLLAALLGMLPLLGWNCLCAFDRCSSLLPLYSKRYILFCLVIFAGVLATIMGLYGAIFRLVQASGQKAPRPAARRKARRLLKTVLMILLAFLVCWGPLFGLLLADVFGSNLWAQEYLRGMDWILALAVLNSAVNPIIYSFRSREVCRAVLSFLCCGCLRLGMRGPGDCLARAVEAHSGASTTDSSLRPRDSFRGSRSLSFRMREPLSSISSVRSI
# S1PR1 = S1PR1 (Homo sapiens, UniProt P21453); details: reported; cited from earlier work
# Chain of S1PR1 (P21453 whole entry, species assumed): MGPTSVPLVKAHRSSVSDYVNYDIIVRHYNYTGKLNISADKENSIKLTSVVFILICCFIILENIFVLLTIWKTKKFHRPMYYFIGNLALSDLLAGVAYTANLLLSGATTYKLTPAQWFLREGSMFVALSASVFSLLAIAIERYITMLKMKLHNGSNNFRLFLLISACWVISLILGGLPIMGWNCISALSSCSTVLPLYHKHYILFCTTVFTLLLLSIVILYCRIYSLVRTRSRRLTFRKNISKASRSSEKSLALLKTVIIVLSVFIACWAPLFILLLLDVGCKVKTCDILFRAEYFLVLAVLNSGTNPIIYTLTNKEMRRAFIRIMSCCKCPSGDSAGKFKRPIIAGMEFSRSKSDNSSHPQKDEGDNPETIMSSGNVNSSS
# [2] = tested on: cells preserved at low temperature; assay: Cold damage suppression at varied timings of contact with the compound (Example 3); assay type: cell-based
# Procedure: Cells were cultured at 37° C. so as to be at a density of 80 to 90%, and thereafter, the medium was replaced with a medium at 4° C. Then, the culturing at 4° C. in a low temperature incubator was performed. […] The cell viability one hour after the rewarming using a medium at 37° C. was determined by detecting enzyme activity with use of alamarBlue™.
# [3] = tested on: myocardium in the hearts of transplanted rats; assay: Rat heart 24-hour cold storage and ectopic transplantation, Masson's trichrome staining (Example 4); assay type: in vivo, LEW rats; details: UW solution with 10 μM, 24-hour cold storage at 4° C., one week after transplantation, versus Vehicle group
# Procedure: To each of 7 to 8 week-old LEW rats as recipients, laparotomy under general anesthesia was performed to expose the abdominal aorta and the vena cava. Then, the heart in cold storage was taken out of the UW solution, and ectopic transplantation was carried out, by end-to-side anastomosis between the pulmonary artery and the aorta of the donor and the abdominal vena cava and the aorta of the recipient, respectively, followed by laparotomy closure. The heart was removed one week after the transplantation, and the viable area and fibrotic area of myocardium in the heart were compared by using Masson's trichrome staining (N=5 in each group).
# S1PR5 = S1PR5 (Homo sapiens, UniProt Q9H228); details: reported; cited from earlier work
# Chain of S1PR5 (Q9H228 whole entry, species assumed): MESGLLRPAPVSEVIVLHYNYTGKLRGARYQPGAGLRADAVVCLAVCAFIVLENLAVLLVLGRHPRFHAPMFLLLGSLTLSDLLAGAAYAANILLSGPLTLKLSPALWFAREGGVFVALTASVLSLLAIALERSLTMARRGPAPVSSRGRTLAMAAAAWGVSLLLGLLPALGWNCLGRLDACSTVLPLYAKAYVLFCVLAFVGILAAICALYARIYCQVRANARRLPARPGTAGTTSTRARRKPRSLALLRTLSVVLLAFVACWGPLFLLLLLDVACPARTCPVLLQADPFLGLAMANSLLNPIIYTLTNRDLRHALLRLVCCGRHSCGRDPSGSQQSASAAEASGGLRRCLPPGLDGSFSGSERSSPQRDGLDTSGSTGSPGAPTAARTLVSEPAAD
# [4] = tested on: cell line HepG2 derived from a human liver cancer; assay: Cold storage time versus viability, HepG2 (Example 2); assay type: cell-based; details: HepG2, 10 μM, 4° C., versus Vehicle
# Procedure: (§1) Then, the culturing at 4° C. in a low temperature incubator was performed. The cell viability one hour after the rewarming using a medium at 37° C. was determined by detecting enzyme activity with use of alamarBlue™. The relationship between the cold storage time and the viability was observed.
# Flp-In™ CHO cell line = assay: Cold storage time versus viability, Flp-In CHO (Example 2); assay type: cell-based
# Procedure: as §1
# [5] = tested on: human umbilical vascular endothelial cell line HUEhT-2; assay: Cold storage time versus viability, HUEhT-2 (Example 2); assay type: cell-based; details: HUEhT-2, 10 μM
# Procedure: as §1
SMILES,S1PR antagonist (S1PR),toxicity to the cells (the cells),amelioration of the deterioration of cell viability during the low-temperature preservation (cold damage suppression) [1],inhibiting activity to S1PR2 (S1PR2),inhibiting activity to S1PR4 (S1PR4),inhibiting activity to S1PR1 (S1PR1),cold damage (deterioration of viability) suppression ([2]; 10 μM added simultaneously with the start of the low-temperature preservation),cold damage (deterioration of viability) suppression ([2]; 10 μM added to the medium before the start of the low-temperature preservation),cold damage (deterioration of viability) suppression ([2]; 10 μM added when the temperature was turned to 37° C. after the low-temperature preservation (Rewarm treat)),fibrotic area of myocardium [3],viable area of myocardium [3],inhibiting activity to S1PR5 (S1PR5),amelioration of the deterioration of cell viability during the low-temperature preservation [4],"amelioration of the deterioration of cell viability during the low-temperature preservation (Flp-In™ CHO cell line; 10 μM, 4° C., versus Vehicle)","viability at 10 µM (Flp-In™ CHO cell line; Cricetulus griseus, 360 h, low-temperature preservation period 15 days) [%]","amelioration of the deterioration of cell viability during the low-temperature preservation ([5]; 4° C., versus Vehicle)","viability at 10 µM ([5]; Homo sapiens, Endothelial cell, 360 h, low-temperature preservation period 15 days) [%]"
"Cc1nn(C)c2nc(NNC(=O)Nc3cc(Cl)nc(Cl)c3)cc(C(C)C)c12 [Compound 2, N-(2,6-dichloro-4-pyridinyl)-2-[1,3-dimethyl-4-(1-methylethyl)-1H-pyrazolo[3,4-b]pyridin-6-yl]-hydrazinecarboxamide]",S1PR antagonists,did not exhibit toxicity,concentration-dependent amelioration,,,,,,,,,,,,,,
"CC(C)(C)C(=O)/C(=N/c1ccc(Cl)cc1)NNc1ccc(Cl)cc1 [Compound 1, N-(4-chlorophenyl)-N′-(4-chlorophenylamino)-3,3-dimethyl-2-oxobutanamidine]",S1PR antagonists,did not exhibit toxicity,concentration-dependent amelioration,has an inhibiting activity,has an inhibiting activity,has an inhibiting activity,could be suppressed,could be suppressed,not sufficiently suppressed,less fibrotic one,more viable myocardium,has an inhibiting activity,amelioration of the deterioration of cell viability,amelioration of the deterioration of cell viability,> 50,amelioration of the deterioration of cell viability,> 50

# Reference: patent US20210204539A1, “Method for Suppressing Freezing Damage and Composition for Preventing Freezing Damage” (Kyoto University, priority 2018, published 2021)
